Source: patent US7737166B2, “Antifungal bicyclic hetero ring compounds” (Daiichi Sankyo Company, Limited, priority 2005, dated 2010)
Converted amounts (≈) assume the structure as drawn.

Legend:
Test in all cases: Antifungal activity (GI80), growth inhibition in YPD20 medium by absorbance at 600 nm
Format in all cases: cell-based
C. albicans ATCC MYA-573 = settings: minimum concentration for at least 80% cell growth inhibition, 37° C., absorbance 600 nm; for IC80: Candida albicans, read-out: GI80 (μg/ml) C. albicans ATCC MYA-573
Description: (§1) The antifungal activity of the compounds of the invention was determined according to the method mentioned below.
(§2) An YPD20 medium (1% yeast extract, 2% peptone, 20% glucose) was used,
(§3) (2) Preparation of Cell Liquid for Inoculation:
(§4) Cells incubated overnight with Sabouraud dextrose agar at 30° C. were suspended in 0.1% Tween 80-added saline, and then added to a concentrated medium (1.33% yeast extract, 2.67% peptone, 13.33% glucose) so that the final cell concentration could be 5×10^3 cells/ml, thereby preparing a cell liquid for inoculation.
(§5) (3) Production of Chemical Dilution Plate:
(§6) A metered sample was dissolved in dimethyl sulfoxide, and a 2-fold dilution series was prepared using dimethyl sulfoxide. A chemical dilution of 2 μl each was added to a flat-bottom 96-well plate with 40% glucose (48 μl) put in each well, thereby producing a chemical dilution plate.
(§7) (4) Inoculation and Cultivation of Cell Liquid:
(§8) The cell liquid (150 μl) prepared in (2) was added to the chemical dilution plate produced in (3), followed by aerobic static cultivation at 37° C.
(§9) (5) Determination of Antifungal Activity (GI80 Value):
(§10) After cultivation for […], the plate was stirred, and its absorbance (600 nm) was measured. Based on the absorbance as the index, the minimum chemical concentration for at least 80% cell growth inhibition relative to the cell growth in the chemical-free well was computed as a GI80 value.

C. albicans ATCC90028 = settings: 37° C., absorbance 600 nm; for IC80: Candida albicans, ATCC90028, minimum concentration for at least 80% cell growth inhibition, read-out: GI80 (μg/ml) C. albicans ATCC90028; for GI80 (μg/ml) C. albicans ATCC90028: minimum concentration for at least 80% cell growth inhibition
Description: as §1, §2, §3, §4, §5, §6, §7, §8, §9, §10

C. glabrata ATCC48435 = settings: 37° C., absorbance 600 nm; for IC80: Nakaseomyces glabratus, ATCC48435, minimum concentration for at least 80% cell growth inhibition, read-out: GI80 (μg/ml) C. glabrata ATCC48435; for GI80 (μg/ml) C. glabrata ATCC48435: minimum concentration for at least 80% cell growth inhibition
Description: as §1, §2, §3, §4, §5, §6, §7, §8, §9, §10

SMILES	IC80 (C. albicans ATCC MYA-573)	IC80 (C. albicans ATCC90028)	IC80 (C. glabrata ATCC48435)	GI80 (μg/ml) C. albicans ATCC MYA-573 (C. albicans ATCC MYA-573)	GI80 (μg/ml) C. albicans ATCC90028 (C. albicans ATCC90028)	GI80 (μg/ml) C. glabrata ATCC48435 (C. glabrata ATCC48435)
Cc1c(-n2cccc2)c(N2CC[C@H](N(C)C)C2)c2oc(C3CC3)nc2c1C#N [Example 151, 2-Cyclopropyl-7-[(3S)-3-(dimethylamino)pyrrolidin-1-yl]-5-methyl-6-(pyrrol-1-yl)-1,3-benzoxazole-4-carbonitrile]	1 µg/mL (≈ 2.66 µM)	2 µg/mL (≈ 5.33 µM)	0.25 µg/mL (≈ 0.666 µM)			
CN[C@H]1CCN(c2c(-c3cccc(C)c3)c(C)c(C#N)c3nc(C(=O)N(C)C)oc23)C1 [Example 146-2, 4-Cyano-N,N,5-trimethyl-7-[(3S)-3-(methylamino)pyrrolidin-1-yl]-6-(3-methylphenyl)-1,3-benzoxazole-2-carboxamide]	0.25 µg/mL (≈ 0.599 µM)	0.125 µg/mL (≈ 0.299 µM)	0.063 µg/mL (≈ 0.151 µM)			
Cc1c(-c2ccccc2)c(N2CC[C@H](N(C)C)C2)c2oc(C3CCC3)nc2c1C#N [Example 106, 2-Cyclobutyl-7-[(3S)-3-(dimethylamino)pyrrolidin-1-yl]-5-methyl-6-phenyl-1,3-benzoxazole-4-carbonitrile]	0.125 µg/mL (≈ 0.312 µM)	0.063 µg/mL (≈ 0.157 µM)	< 0.016 µg/mL			
Cc1c(-c2ccccc2)c(N2CC[C@H](N(C)C)C2)c2oc(N(C)C)nc2c1C#N [Example 56, 2-(Dimethylamino)-7-[(3S)-3-(dimethylamino)pyrrolidin-1-yl]-5-methyl-6-phenyl-1,3-benzoxazole-4-carbonitrile]	0.5 µg/mL (≈ 1.28 µM)	0.125 µg/mL (≈ 0.321 µM)	0.063 µg/mL (≈ 0.162 µM)			
CCOC(=O)[C@@H]1C[C@H]1c1nc2c(C#N)c(C)c(-c3ccccc3)c(N3CC[C@H](N(C)C)C3)c2o1 (relative stereo) [Example 112, Ethyl (1R*,2R*)-2-{4-cyano-7-[(3S)-3-(dimethylamino)pyrrolidin-1-yl]-5-methyl-6-phenyl-1,3-benzoxazol-2-yl}cyclopropanecarboxylate]	0.063 µg/mL (≈ 0.137 µM)	0.032 µg/mL (≈ 0.0698 µM)	0.032 µg/mL (≈ 0.0698 µM)			
CN[C@H]1CCN(c2c(-c3ccccc3)c(CF)c(C#N)c3nc(C4CC4)oc23)C1 [Example 140, 2-Cyclopropyl-5-fluoromethyl-7-[(3S)-3-(methylamino)pyrrolidin-1-yl]-6-phenyl-1,3-benzoxazole-4-carbonitrile]	0.5 µg/mL (≈ 1.28 µM)	0.5 µg/mL (≈ 1.28 µM)	0.125 µg/mL (≈ 0.32 µM)			
CCC(C)n1ncn(-c2ccc(N3CCN(c4ccc(OCC5COC(Cn6cncn6)(c6ccc(Cl)cc6Cl)O5)cc4)CC3)cc2)c1=O (stereo not drawn) [ITZ, Itraconazole, reference compound]				0.125 µg/mL (≈ 0.177 µM)	<0.016 µg/mL	0.25 µg/mL (≈ 0.354 µM)
Cc1c(-c2cc(F)cc(F)c2)c(N2CC[C@H](N(C)C)C2)c2oc(C3CC3)nc2c1C#N [Example 82, 2-Cyclopropyl-6-(3,5-difluorophenyl)-7-[(3S)-3-(dimethylamino)pyrrolidin-1-yl]-5-methyl-1,3-benzoxazole-4-carbonitrile]	0.125 µg/mL (≈ 0.296 µM)	0.063 µg/mL (≈ 0.149 µM)	0.032 µg/mL (≈ 0.0757 µM)			
CN[C@H]1CCN(c2c(-c3ccccc3)c(C)c(C#N)c3nc(C(=O)N(C)CCF)oc23)C1 [Example 134, 4-Cyano-N-(2-fluoroethyl)-N,5-dimethyl-7-[(3S)-3-(methylamino)pyrrolidin-1-yl]-6-phenyl-1,3-benzoxazole-2-carboxamide]	0.5 µg/mL (≈ 1.15 µM)	0.5 µg/mL (≈ 1.15 µM)	0.125 µg/mL (≈ 0.287 µM)			
OC(Cn1cncn1)(Cn1cncn1)c1ccc(F)cc1F [FCZ, Fluconazole, reference compound]	> 4 µg/mL	0.25 µg/mL (≈ 0.816 µM)	> 4 µg/mL			
Cc1c(-c2ccccc2)c(N2CC[C@H](N(C)C)C2)c2oc(N3CC(C(=O)O)C3)nc2c1C#N [Example 67, 1-{4-Cyano-7-[(3S)-3-(dimethylamino)pyrrolidin-1-yl]-5-methyl-6-phenyl-1,3-benzoxazol-2-yl}-azetidine-3-carboxylic acid]	> 4 µg/mL	> 4 µg/mL	0.25 µg/mL (≈ 0.561 µM)			
CN[C@H]1CCN(c2c(-c3cccc(Cl)c3)c(C)c(C#N)c3nc(C(=O)N(C)C)oc23)C1 [Example 146, 6-(3-Chlorophenyl)-4-cyano-N,N,5-trimethyl-7-[(3S)-3-(methylamino)pyrrolidin-1-yl]-1,3-benzoxazole-2-carboxamide]	0.25 µg/mL (≈ 0.571 µM)	0.125 µg/mL (≈ 0.285 µM)	0.125 µg/mL (≈ 0.285 µM)			
Cc1c(-c2ccccc2)c(N2CC[C@H](N(C)C)C2)c2oc(Cc3ccco3)nc2c1C#N [Example 122, 7-[(3S)-3-(Dimethylamino)pyrrolidin-1-yl]-2-(2-furylmethyl)-5-methyl-6-phenyl-1,3-benzoxazole-4-carbonitrile]	0.5 µg/mL (≈ 1.17 µM)	0.5 µg/mL (≈ 1.17 µM)	0.125 µg/mL (≈ 0.293 µM)			
CN[C@H]1CCN(c2c(-c3csc(C)n3)c(C)c(C#N)c3nc(C(=O)N(C)C)oc23)C1 [Example 52]				1 µg/mL (≈ 2.36 µM)	1 µg/mL (≈ 2.36 µM)	0.25 µg/mL (≈ 0.589 µM)
CC(=O)NC1CN(c2nc3c(C#N)c(C)c(-c4ccccc4)c(N4CC[C@H](N(C)C)C4)c3o2)C1 [Example 126]				0.5 µg/mL (≈ 1.09 µM)	0.5 µg/mL (≈ 1.09 µM)	0.125 µg/mL (≈ 0.273 µM)
Cc1c(-c2ccccc2)c(N2CCC[C@H]2CN(C)C)c2oc(C3CC3)nc2c1C#N [Example 154, 2-Cyclopropyl-7-{(2S)-2-[(dimethylamino)methyl]pyrrolidin-1-yl}-5-methyl-6-phenyl-1,3-benzoxazole-4-carbonitrile]	1 µg/mL (≈ 2.5 µM)	1 µg/mL (≈ 2.5 µM)	0.25 µg/mL (≈ 0.624 µM)			
CNC1=CC(c2c(-c3ccccc3)c(C)c(C#N)c3nc(C(=O)N(C)C)oc23)CC1 (stereo not drawn) [Example 156-1, 4-Cyano-N,N,5-trimethyl-7-[3-(methylamino)cyclopent-2-enyl]-6-phenyl-1,3-benzoxazole-2-carboxamide]	0.25 µg/mL (≈ 0.624 µM)	0.25 µg/mL (≈ 0.624 µM)	0.063 µg/mL (≈ 0.157 µM)			
Cc1c(-c2ccccc2)c(N2CC[C@H](N(C)C)C2)c2oc([C@@H]3C[C@H]3C(=O)N(C)C)nc2c1C#N (relative stereo) [Example 135, (1R*,2R*)-2-[4-Cyano-7-((S)-3-dimethylamino-pyrrolidinyl)-5-methyl-6-phenyl-benzoxazol-2-yl]-cyclopropanecarbonyldimethylamide]				0.125 µg/mL (≈ 0.273 µM)	0.125 µg/mL (≈ 0.273 µM)	0.063 µg/mL (≈ 0.138 µM)
COc1cccc(-c2c(C)c(C#N)c3nc(C4CC4)oc3c2N2CC[C@H](N(C)C)C2)c1 [Example 144-11, 2-Cyclopropyl-7-[(3S)-3-(dimethylamino)pyrrolidin-1-yl]-6-(3-methoxyphenyl)-5-methyl-1,3-benzoxazole-4-carbonitrile]	0.5 µg/mL (≈ 1.2 µM)	0.25 µg/mL (≈ 0.6 µM)	0.125 µg/mL (≈ 0.3 µM)			
Cc1c(-c2ccccc2)c(N2CC[C@H](N(C)C)C2)c2oc(-c3ccco3)nc2c1C#N [Example 34, 7-[(3S)-3-(Dimethylamino)pyrrolidin-1-yl]-2-(2-furyl)-5-methyl-6-phenyl-1,3-benzoxazole-4-carbonitrile]	0.25 µg/mL (≈ 0.606 µM)	0.25 µg/mL (≈ 0.606 µM)	0.032 µg/mL (≈ 0.0776 µM)			
Cc1c(-c2ccccc2)c(N2CC[C@H](N(C)C)C2)c2oc(C(=O)N(C)CC(=O)N(C)C)nc2c1C#N [Example 50, 4-Cyano-N-[2-(dimethylamino)-2-oxoethyl]-7-[(3S)-3-(dimethylamino)pyrrolidin-1-yl]-N,5-dimethyl-6-phenyl-1,3-benzoxazole-2-carboxamide]	2 µg/mL (≈ 4.09 µM)	2 µg/mL (≈ 4.09 µM)	0.25 µg/mL (≈ 0.512 µM)			
CN[C@H]1CCN(c2c(-c3csc(C)n3)c(C)c(C#N)c3nc(C(=O)N(C)C)oc23)C1 [Example 158, 4-Cyano-N,N,5-trimethyl-7-[(3S)-3-(methylamino)pyrrolidin-1-yl]-6-(2-methyl-1,3-thiazol-4-yl)-1,3-benzoxazole-2-carboxamide]				2 µg/mL (≈ 4.71 µM)	0.5 µg/mL (≈ 1.18 µM)	0.25 µg/mL (≈ 0.589 µM)
CN[C@H]1CCN(c2c(-c3cccs3)c(C)c(C#N)c3nc(C(=O)N(C)C)oc23)C1 [Example 145, 4-Cyano-N,N,5-trimethyl-7-[(3S)-3-(methylamino)pyrrolidin-1-yl]-6-(thiophen-2-yl)-1,3-benzoxazole-2-carboxamide]	0.5 µg/mL (≈ 1.22 µM)	0.5 µg/mL (≈ 1.22 µM)	0.125 µg/mL (≈ 0.305 µM)			
CNC[C@H]1CCN1c1c(-c2ccccc2)c(C)c(C#N)c2nc(C(=O)N(C)C)oc12 [Example 155]				2 µg/mL (≈ 4.96 µM)	0.5 µg/mL (≈ 1.24 µM)	0.125 µg/mL (≈ 0.31 µM)
Cc1c(-c2ccccc2)c(N2CC[C@H](N(C)C)C2)c2oc(N(C)Cc3ncn[nH]3)nc2c1C#N [Example 72, 7-[(3S)-3-(Dimethylamino)pyrrolidin-1-yl]-5-methyl-2-[methyl(1H-1,2,4-triazol-5-ylmethyl)amino]-6-phenyl-1,3-benzoxazole-4-carbonitrile]	0.5 µg/mL (≈ 1.1 µM)	0.5 µg/mL (≈ 1.1 µM)	0.125 µg/mL (≈ 0.274 µM)			
